These results are taken from patent US6911465B1, “Anti-inflammatory indole derivatives” (AstraZeneca AB, priority 1999, dated 2005).

Read-outs that look alike come from different tables or passages of the source.

The target of one test is T1, MCP-1 receptor B (CCR2B) (Homo sapiens, UniProt P41597).
T1 construct: expressed in transfected cells; membrane fragments
T1 sequence (P41597 1-360 isoform P41597-2): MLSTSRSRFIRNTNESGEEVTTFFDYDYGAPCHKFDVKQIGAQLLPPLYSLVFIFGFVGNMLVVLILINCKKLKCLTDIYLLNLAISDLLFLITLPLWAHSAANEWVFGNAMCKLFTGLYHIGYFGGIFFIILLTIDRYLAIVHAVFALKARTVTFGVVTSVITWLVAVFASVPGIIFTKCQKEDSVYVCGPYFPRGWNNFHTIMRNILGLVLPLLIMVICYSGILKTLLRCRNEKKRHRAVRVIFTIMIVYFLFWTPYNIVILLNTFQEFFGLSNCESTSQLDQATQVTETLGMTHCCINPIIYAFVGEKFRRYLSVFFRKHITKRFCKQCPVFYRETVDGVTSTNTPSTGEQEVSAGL
Nature of the test: hMCP-1 receptor binding assay (125I-MCP-1, CHO-CCR2B cell membranes). An excerpt: The MCP-1 receptor B (CCR2B) cDNA was cloned by PCR from THP-1 cell RNA using suitable oligonucleotide primers based on the published MCP-1 receptor sequences (Charo et al., 1994, Proc. Natl. Acad. Sci USA, 91, 2752). The resulting PCR products were cloned into vector PCR-II™ (In Vitrogen, San Diego, Calif.). Error free CCR2B cDNA was subcloned as a Hind III-Not I fragment into the eukaryotic expression vector pCDNA3 (In Vitrogen) to generate pCDNA3/CC-CKR2A and pCDNA3/CCR2B respectively.
Linearised pCDNA3/CCR2B DNA was transfected into CHO-K1 cells by calcium phosphate precipitation (Wigler et al., 1979, Cell, 16, 777). Transfected cells were selected by the addition of Geneticin Sulphate (G418, Gibco BRL) at 1 mg/mlo, 24 hours after the cells had been transfected. Preparation of RNA and Norther Blotting were carried out as described previously (Needham et al., 1995, Prot. Express. Purific., 6, 134). CHO-K1 clone 7 (CHO-CCR2B) was identified as the highest MCP-1 receptor B-expressor. […]
^125I MCP-1 was preapred using Bolton and Hunter conjugation (Bolton et al., 1973, Biochem. J., 133, 529; Amersham International plc]. Equilibrium binding assays were carried out using the method of Ernst et al., 1994, J. Immunol., 152, 3541. Briefly, varying amounts of ^125I-labeled MCP-1 were added to 7 μg of purified CHO-CCR2B cell membranes in 100 μl of Binding Buffer. After 1 hour incubation at room temperature the binding reaction mixtures wre filtered and washed 5 times through a plate washer (Brandel MLR-96T Cell Harvester) using ice cold Binding Buffer. Filter mats (Brandel GF/B) were pre-soaked for 60 minutes in 0.3% polyethyleneimine prior to use. Following filtration individual filters were separated into 3.5 ml tubes (Sarsted No. 55.484) and bound ^125I-labeled MCP-1 was determined (LKB 1277 Gammamaster). […] Non-specific binding was determined by the incinsion of a 200-fold molar excess of unlabelled MCP-1 in the reaction. […]

The subject of test [1] is THP-1 cells. Briefly: MCP-1 mediated calcium flux in THP-1 cells. The settings on record: stimulation of THP-1 cells, FURA-2, approximate; read-out: EC50 for rise in [Ca2+]i. It counts as cell-based, human. As to the method:
The human monocytic cell line THP-1 was grown in a synthetic cell culture medium RPMI 1640 supplemented with 10% foetal calf serum, 6 mM glutamine and Penicillin-Streptomycin (at 50 μg streptomycin/ml, Gibco BRL). THP-1 cells were washed in HBSS (lacking Ca^2+ and Mg^2+)+1 mg/ml BSA and resuspending in the same buffer at a density of 3×10^6 cells/ml. The cells were then loaded with […] FURA-2/AM for 30 min at 37° C., washed twice in HBSS, and resuspended in 1×10^6 cells/ml. THP-1 cell suspension (0.9 ml) was added to a 5 ml disposable curvette containing a magnetic stirrer bar and 2.1 ml of prewarmed (37° C.) HBSS containing 1 mg/ml BSA, 1 mM MgCl2 and 2 mM CaCl2. The cuvette was placed in a fluorescence spectrophootmeter (Perkin Elmer, Norwalk, Conn.) and preincubated for 4 min at 37° C. with stirring. Fluorescence was recorded over 70 sec and cells wre stimulated by addition of hMCP-1 to the curvette after 10 sec. [Ca^2+]i was measured by excitation at 340 nm and 380 nm alternately and subsequent measurement of the intensity of the fluorescence emission at 510 nm. […] Rmax is the maximal fluorescence ratio determined after additional of […] lonomycin, […] ratio determined by the subsequent addition of a Ca^2+ free solution containing 5 mM EGTA, and Sf2/Sb2 is the ratio of fluorescence values at 380 nm excitation determined at Rmin and Rmax, respectively. […]
For orientation: A change in cytosolic calcium serves as a functional read-out for many receptors and channels.

For test [2], the system named is THP-1 cells. Nature of the test: hMCP-1 mediated chemotaxis of THP-1 cells. It counts as cell-based, human. The settings on record: biphasic response. As to the method:
In vitro chemotaxis assays were performed using the human monocytic cell line THP-1. Cell migration through polycarbonate membranes was measured by enumerating those passing through either directly by Coulter counting or indirectly by use of a colourimetric viability assay measuring the cleavage of a tetrazolium salt by the microchondrial respiratory chain (Scudiero D. A. et al. 1988, Cancer Res., 48, 4827-4833).
Chemoattractants were introduced into a 96-well microtiter plate which forms the lower well of a chemotaxis chamber fitted with a PVP-free 5 μm poresize polycarbonate adhesive framed filter membrane (NeuroProbe MB series, Cabin John, MD 20818, USA) according to the manufacturer's instructions. […] The plate was incubated at 37° C. for 3 h and the absorbance of the soluble formazan product was read on a microtiter plate reader at 450 nm. The data was input into a spreadsheet, corrected for any random migration in the absence of chemoattractant and the average absorbance values, standard error of the mean, and significance tests were calculated. hMCP-1 induced concentration dependent cell migration with a characteristic biphasic response, maximal […].

In the case of “MCP-1: Human Monocyte Chemoattractant Protein-1, the chemokine ligand of the CCR2 receptor”, the IC50 (commonly the midpoint of a concentration-inhibition curve) with MCP-1 receptor B (CCR2B) (cold competition, unlabelled MCP-1 vs 100 pM 125I-MCP-1, CHO-CCR2B membrane fragments, read-out: IC50 of MCP-1 binding to CCR2B) is 0.11 nM. Further, the Kd (in general, the concentration at which binding is half-saturated) in the test with MCP-1 receptor B (CCR2B) (equilibrium binding, CHO-CCR2B membrane fragments) was 0.12 nM. Moreover, in the test on THP-1 cells [1], the 50% effective concentration (EC50) (usually the concentration at which the effect is half-maximal) is ~2 nM. Besides, the “concentration of maximal cell migration” value with THP-1 cells [2] is given as 0.5-1.0 nm.
As to `O=C(CN1CCOCC1)Nc1cccc2c1cc(C(=O)O)n2Cc1ccc(Cl)c(Cl)c1` [Compound 2], the IC50 on MCP-1 receptor B (CCR2B) (competition with 100 pM labelled MCP-1, CHO-CCR2B membranes, 0.01-50 μM, read-out: IC50 in hMCP-1 receptor binding assay) came out at 1700 nM.
